Measurements published in ChEMBL document CHEMBL5729101, “CaMKII inhibitors and uses thereof” (2022).

Assay: In Vitro CaMKIIδ Activity Assay: The inhibition of CaMKII activity was evaluated using a coupled assay measuring ADP released following ATP hydrolysis and phosphor-transfer to the peptide substrate AC3 (KKALHRQETVDAL; SEQ ID NO: 1) (1). A full length, C-terminal His/Gln tagged CaMKIIδ construct was used.

Row | IC50 | Structure (SMILES)
1 | < 0.1 µM | NCCCOc1cccc(-c2ccnc3[nH]c4ccccc4c23)c1
2 | < 0.1 µM | Cc1ccc2c(c1)[nH]c1nccc(-c3cccc(NCCN)c3)c12
3 | in the range around 55 µM | C(=C\c1ccnc2[nH]c3ccccc3c12)/CN1CCNCC1
4 | in the range around 55 µM | Clc1cncc(-c2ccnc3[nH]c4ccccc4c23)c1
5 | in the range around 55 µM | c1ccc2c(c1)[nH]c1nccc(-c3cnc(N4CCNCC4)s3)c12
6 | in the range around 55 µM | c1ccc2c(c1)[nH]c1nccc(-c3cnn(C4CCNCC4)c3)c12
7 | < 0.1 µM | Cc1ccc2[nH]c3nccc(-c4cccc(NCCN)c4)c3c2c1
8 | in the range around 55 µM | NCc1cccc(-c2ccnc3[nH]c4ccccc4c23)c1
9 | in the range around 55 µM | Cc1nn(C2CCNCC2)cc1-c1ccnc2[nH]c3ccccc3c12
10 | in the range around 55 µM | c1cc(-c2ccnc3[nH]c4ccccc4c23)cc(-n2ccnc2)c1
11 | < 0.1 µM | c1cc(-c2ccnc3[nH]c4ccccc4c23)nc(N2CCNCC2)c1
12 | < 0.1 µM | COc1ccc2c(c1)[nH]c1nccc(-c3cccc(NCCN)c3)c12
13 | < 0.1 µM | NCCOc1cccc(-c2ccnc3[nH]c4ccccc4c23)c1
14 | < 0.1 µM | NCCNc1cccc(-c2ccnc3[nH]c4ccccc4c23)c1
15 | < 0.1 µM | NCCCNc1cccc(-c2ccnc3[nH]c4ccccc4c23)c1
16 | in the range around 55 µM | c1ccc2c(c1)[nH]c1nccc(-n3cc(C4CCNCC4)nn3)c12
17 | < 0.1 µM | NCCNc1cccc(-c2ccnc3[nH]c4ccc(Cl)cc4c23)c1
18 | in the range around 55 µM | C(=C/c1ccnc2[nH]c3ccccc3c12)/CN1CCNCC1
19 | in the range around 55 µM | Clc1cnccc1-c1ccnc2[nH]c3ccccc3c12
